According to US20140369979A1, “VECTOR SIMULTANEOUSLY EXPRESSING DODECAMERIC TRAIL AND HSV-TK SUICIDE GENES, AND ANTICANCER STEM CELL THERAPEUTIC AGENT USING SAME” (POSTECH ACADEMY-INDUSTRY FOUNDATION, priority 2012, published 2014):

Columns and labels:
[1] = tested on: MSC/dTRAIL-TK; assay: Survival rate of MSC/dTRAIL-TK after GCV treatment (MTS method); assay type: cell-based, rat; settings: 100 μM GCV, one week after treatment
Method: In order to examine the suicide induction effect of MSC/dTRAIL-TK by GCV treatment, cells were treated with 10, 30, and 100 μM of GCV. From 1 day after GCV treatment, survival rate of MSC/dTRAIL-TK was examined by an MTS method every other day.

[2] = tested on: TRAIL expression by MSC/dTRAIL-TK; assay: TRAIL expression of MSC/dTRAIL-TK after GCV treatment (ELISA of culture broth); assay type: cell-based, rat; settings: GCV 10, 30, 100 μM, culture broth every 24 hours
Method: Next, in order to examine whether TRAIL expression is reduced by MSC/dTRAIL-TK apoptosis, GCV was treated at the same concentrations, and the culture broth was collected every 24 hours to examine TRAIL expression by ELISA (enzyme-linked immunosorbent assay).

For `Nc1nc(O)c2ncn(COC(CO)CO)c2n1` [GCV, ganciclovir], the “survival rate of MSC/dTRAIL-TK” value [1] was “almost all cells were eliminated” and the TRAIL expression [2] was “TRAIL expression was reduced”.
